Experimental data from patent publication US20260250337A1, “HYBRID ANTIMICROBIAL PEPTIDES” (UNIVERSIDADE FEDERAL DO ABC, priority 2023, published 2026).
“Also recorded” adds a separate entry of the source. No end group written: not given here.

Legend:
[1] = system: M. luteus A270; assay: Liquid growth inhibition assay, MIC; format: cell-based, Micrococcus luteus; details: 37° C., 18 h
Protocol: (§1) Initially, the antimicrobial activity was determined by liquid growth inhibition assays, as previously described by Pedron et al.^62. Briefly, Peptone Broth and Potato Dextrose Broth (Invitrogen) were used for antibacterial and antifungal assays, respectively. Two-fold serial dilutions of peptides (0.09-50 μmol L^−1) and microorganisms (Serratia marcescens ATCC 4112, Enterobacter cloacae β-12, Micrococcus luteus A270, Bacillus megaterium ATCC 10778, Bacillus subtilis ATCC 6633, Candida albicans MDM8, and Candida tropicalis IOC 4560) were incubated at 37° C. for 18 h (for bacteria) or 24 h (for fungi), and microbial growth was assessed by absorbance measurements at 595 nm. Experiments were performed in three biological repeats.

[2] = system: S. epidermidis ATCC 12228; assay: Liquid growth inhibition assay, MIC; format: cell-based; details: 37° C., 18 h
[3] = system: B. megaterium ATCC 10778; assay: Liquid growth inhibition assay, MIC; format: cell-based, Bacillus megaterium; details: 37° C., 18 h
Protocol: as §1

[4] = system: S. marcescens ATCC 4112; assay: Liquid growth inhibition assay, MIC; format: cell-based, Serratia marcescens; details: 37° C., 18 h
Protocol: as §1

[5] = system: E. cloacae β-12; assay: Liquid growth inhibition assay, MIC; format: cell-based, Enterobacter cloacae; details: 37° C., 18 h
Protocol: as §1

[6] = system: C. albicans MDM8; assay: Liquid growth inhibition assay, MIC (antifungal); format: cell-based, Candida albicans; details: 37° C., 24 h
Protocol: as §1

[7] = system: C. tropicalis IOC 4560; assay: Liquid growth inhibition assay, MIC (antifungal); format: cell-based, Candida tropicalis; details: 37° C., 24 h
Protocol: as §1

[8] = system: human erythrocytes; assay: Hemolytic activity assay; format: cell-based; details: for Hemolytic activity, concentration of peptide needed to kill 10% of red blood cells / MHC: human erythrocytes, 1 h; for MHC: room temperature, concentration with approximately 0% of hemolytic activity
Protocol: Method. Assays against freshly collected human erythrocytes were performed following protocols described by Pedron et al. 62. Briefly, peptide aliquots at concentrations ranging from 0.1 to 100 μmol L−1 were incubated with a suspension of erythrocytes at room temperature for 1 h. The samples were then centrifuged, and the absorbance of the supernatant was measured at 405 nm. The MHC (maximal non-hemolytic concentration) was determined as the maximal concentration at which 100% of the erythrocytes were viable. The surfactant SDS and PBS buffer were used as positive88, 89 and negative controls, respectively. Sodium heparin was used as an anticoagulant when collecting human blood. Three biological repeats were performed.

[9] = system: Plasmodium gallinaceum sporozoites; assay: Antiplasmodial activity, fluorescence microscopy; format: cell-based; details: for P. gallinaceum (% sporozoites at 0.8 μmol L^−1): fluorescent (propidium iodide stained) sporozoites, 37° C., 1 h; for antiplasmodial activity: P. gallinaceum sporozoites, concentration range tested
Protocol: Method. The activity of the peptides against Plasmodium gallinaceum sporozoites was determined by fluorescence microscopy, as previously described by Silva et. al.^83. Briefly, 9,000 sporozoites were isolated from the glands of infected Aedes aegypti mosquitos and incubated with serially diluted peptides (ranging from 0.1 to 1.6 μmol L^−1) at 37° C. for 1 h. A PBS solution and the surfactant digitonin^84, 85 were used as negative and positive controls, respectively. Propidium iodide was used to stain dead cells. Assays were executed using fluorescence microscopy. Three biological repeats each with three different mosquito batches (n=9) were used.

[10] = Circular dichroism, helical fraction (Lifson-Roig); format: physicochemical; details: peptide 50 μmol L^−1; for Helical fraction (fH) PBS: PBS 10 mmol L^−1, pH 7.4; for Helical fraction (fH) POPC: POPC 10 mmol L^−1; for Helical fraction (fH) POPC:DOPE: POPC:DOPE 3:1, mol:mol; for Helical fraction (fH) POPC:DOPE / Helical fraction (fH) POPC:POPG: 10 mmol L^−1; for Helical fraction (fH) POPC:POPG: POPC:POPG 3:1, mol:mol; for Helical fraction (fH) SDS: SDS 20 mmol L^−1 in water; for Helical fraction (fH) TFE/Water: TFE in water (3:2, v:v)
Protocol: Method. Circular dichroism (CD) assays were performed with a Spectropolarimeter Jasco Mod. J-815 (JascoCorp). CD spectra were obtained in Far-UV (195-260 nm), and analyzed in the following solutions: water, 2,2,2-trifluoroethanol (TFE) in water (3:2, v:v), phosphate buffer saline (PBS, 10 mmol L^−1, pH 7.4), sodium dodecyl sulfate (SDS 20 mmol L^−1) in water, palmitoyloleoylphosphatidylcholine (POPC; 10 mmol L^−1), palmitoyloleoylphosphatidylcholine:dioleylphosphatidylethanolamine (POPC:DOPE; 3:1, mol:mol, 10 mmol L^−1) and palmitoyloleoylphosphatidylcholine:palmitoyloleoylphosphatidylglycerol (POPC:POPG; 3:1, mol:mol, 10 mmol L^−1) at a peptide concentration of 50 μmol L^−1. These experiments were performed as described in detail by Pedron et al.^62.

[11] = Resistance to degradation in fetal bovine serum; format: in vitro ADME; details: fetal bovine serum 25% in water, 37° C.; for remaining at 0.5 h: 30 min, read-out: remaining peptide, 30 min; for remaining at 1 h: read-out: remaining peptide, 1 h; for remaining at 2 h: read-out: remaining peptide, 2 h; for remaining at 4 h: read-out: remaining peptide, 4 h
Protocol: The resistance to proteolytic degradation of the hybrid peptides was assessed by exposing them for 6 h to serum peptidases in a fetal bovine serum solution^68, 69 (FIG. 5a and Table S4). The peptide degradation kinetics were calculated by integrating the peak area of the peak in relation to the peptide at the beginning of the experiment (time=0) and comparing it to the integrated peak area relative to the peptides after exposure to the enzymes at time points: 0.5, 1, 2, 4, and 6 h (FIG. 5a and Table S4). […] However, AV was resistant to degradation against proteases, with almost 40% peptide content remaining after 4 h of exposure (FIG. 5a and Table S4). […] VP was almost entirely degraded after 30 min (22% of peptide remaining). […] D-amino acid substitutions have been used as alternatives to prevent the degradation of AMPs. For example, Qiu et. al. described a protonectin analog with a D-Lys residue in position 10 as an alternative to protonectin; this analog is not degraded and has higher antimicrobial activity against bacteria and fungi than the original peptide.
Methods. Stability assays were performed following the protocol described by Torres et al.^71. Briefly, a peptide solution was added to GIBCO fetal bovine serum diluted to 25% in water and kept at 37° C. The degradation kinetics were monitored by liquid chromatography and the percentage of peptide remaining was calculated by integrating the peptide peak area. The experiments were performed as three independent replicates, and aliquots were taken at 0, 0.5, 1, 2, 4, and 6 h.

[12] = system: bacterial strains; assay: Antimicrobial activity over the panel of strains; format: cell-based; details: range of concentrations tested
Protocol: as §1
Method. The minimal inhibitory concentration (MIC) against the ESKAPE pathogens was determined using the broth microdilution method^81, 82 in Luria-Bertani (LB) medium. The MIC value was defined as the lowest concentration of peptide at which no microbial growth was observed. A. baumannii ATCC19606, E. coli ATCC11775, E. coli AIC221, E. coli AIC222, K. pneumoniae ATCC13883, S. aureus ATCC12600 P. aeruginosa PAO1, and P. aeruginosa PA14 were incubated on agar plates, and after 24 h, three isolated colonies were inoculated to 5 mL of Luria-Bertani (LB) broth and maintained at 37° C. overnight with shaking. Peptides were then added to 96-well polystyrene microtiter plates at concentrations ranging from 0 to 128 μmol L^−1, and 5×10^5 CFU mL^−1 of each bacterium was inoculated in each well. The plates were incubated at 37° C. for 24 h. Bacterial growth was measured using a microplate reader at 610 nm. Three independent replicates were performed.

[13] = system: MCF-7 human breast cancer cells; assay: Anticancer activity, MTT assay; format: cell-based; details: incubation time not stated
Protocol: The anticancer activity assays were performed using MCF-10A human breast epithelial cells and MCF-7 mammary cancer cells as previously described by Pedron et al. 86. Briefly, the day before treatment, the cells were incubated at 37° C. and 5% CO2 for 24 h. The cells were treated with peptides ranging from 12.5 to 100 μmol L^−1 (MCF10-A cells) and 0.8 to 100 μmol L^−1 (MCF-7 cells) for 4 h and 24 h at 37° C., and cell viability was measured using 3-(4,5-Dimethylthiazol-2-yl)-2,5-diphenyltetrazolium bromide (MTT) assays 87. Three independent replicates were performed in each case.

[14] = at 100 μmol L^−1; cited from earlier work
[15] = bovine, fetal bovine serum, 25% in water
[16] = bovine, fetal bovine serum, 25% in water, 4 h

Row | Substance | MIC M. luteus A270 [1] [µmol/L] | MIC S. epidermidis ATCC 12228 [2] [µmol/L] | MIC B. megaterium ATCC 10778 [3] [µmol/L] | MIC S. marcescens ATCC 4112 [4] [µmol/L] | MIC E. cloacae β-12 [5] [µmol/L] | MIC C. albicans MDM8 [6] [µmol/L] | MIC C. tropicalis IOC 4560 [7] [µmol/L] | Hemolytic activity, concentration of peptide needed to kill 10% of red blood cells [8] [µmol/L] | MHC [8] [µmol/L] | P. gallinaceum (% sporozoites at 0.8 μmol L^−1) [9] [%] | antiplasmodial activity [9] | Helical fraction (fH) PBS [10] | Helical fraction (fH) POPC [10] | Helical fraction (fH) POPC:DOPE [10] | Helical fraction (fH) POPC:POPG [10] | Helical fraction (fH) SDS [10] | Helical fraction (fH) TFE/Water [10] | Helical fraction (fH) Water [10] | remaining at 0.5 h [11, 15] [%] | remaining at 1 h [11, 15] [%] | further results
1 | SLGALINVLKSGG-NH2 [DV, Ser-Leu-Gly-Ala-Leu-Ile-Asn-Val-Leu-Lys-Ser-Gly-Gly] | >50 | >50 | >50 | >50 | >50 | >50 | >50 | 0.1 | 0.1 | 31 | did not exhibit significant antiplasmodial activity; also recorded: did not present antiplasmodial activity | 0.12 | 0.08 | 0.11 | 0.41 | 0.62 | 0.90 | 0.11 | ~50 | ~50 | remaining at 2 h [11, 15]: ~50%; remaining at 4 h [11, 16]: ~50%; remaining at 6 h ([11]; bovine, fetal bovine serum, 25% in water, 6 h, read-out: remaining peptide, 6 h): ~50%; antimicrobial activity [12]: No antimicrobial activities were observed; also recorded: did not exhibit antimicrobial activity
2 | SLLSLIRKLIT-NH2 [Decoralin, Ser-Leu-Leu-Ser-Len-Ile-Arg-Lys-Leu-Ile-Thr, reference compound] | 0.8 | 6.3 | 1.6 | 3.1 | 6.3 | 0.8 | 1.6 | 1.6 | 1.6 | 0 | no activity; also recorded: did not present antiplasmodial activity | 0.06 | 0.23 | 0.19 | 0.40 | 0.22 | 0.29 | 0.05 | ~70 | < 30 | concentration with activity against MCF-7 human breast cancer cells [13]: 50 µmol/L; remaining at 2 h [11, 15]: < 30%; hemolytic activity of decoralin [14]: low hemolytic activity
3 | GLGALLNVIKSGL-NH2 [AV, Gly-Leu-Gly-Ala-Leu-Len-Asn-Val-Ile-Lys-Ser-Gly-Leu] | 6.3 | >50 | >50 | 50 | >50 | 50 | 50 | 100 | >100 | 90 | exhibited antiplasmodial activity | 0.05 | 0.03 | 0.08 | 0.04 | 0.31 | 0.42 | 0.08 | ~40 | ~40 | hemolytic activity ([8]; 0.1 to 100 μmol L^−1): minimal hemolytic activity; remaining at 2 h [11, 15]: ~40%; remaining at 4 h [11, 16]: ~40%; remaining peptide, 4 h ([11]; 4 h): ~40%; antimicrobial activity [12]: lower antimicrobial activities than the corresponding template peptides
